PubChem BioAssay (NCI)
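Following 48 hours of exposure in 96-well plates, responses at five concentrations were used to interpolate endpoints linearly. The concentration for 50% growth inhibition is given as GI50. TGI marks complete inhibition of growth.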

What was measured:
Test in all cases: NCI tumour cell line growth inhibition, 48 h
RPMI-8226 leukemia = system: RPMI-8226 leukemia
IGROV1 ovarian = system: IGROV1 ovarian
HS 578T breast = system: HS 578T breast
SW-620 colon = system: SW-620 colon
DU-145 prostate = system: DU-145 prostate
786-0 renal = system: 786-0 renal
SNB-19 CNS = system: SNB-19 CNS
HL-60(TB) leukemia = system: HL-60(TB) leukemia
OVCAR-4 ovarian = system: OVCAR-4 ovarian
NCI/ADR-RES ovarian = system: NCI/ADR-RES ovarian
HCT-116 colon = system: HCT-116 colon
M14 melanoma = system: M14 melanoma
SK-MEL-5 melanoma = system: SK-MEL-5 melanoma
T-47D breast = system: T-47D breast
LOX IMVI melanoma = system: LOX IMVI melanoma
UACC-257 melanoma = system: UACC-257 melanoma
BT-549 breast = system: BT-549 breast
K-562 leukemia = system: K-562 leukemia
OVCAR-5 ovarian = system: OVCAR-5 ovarian
MALME-3M melanoma = system: MALME-3M melanoma
NCI-H522 lung = system: NCI-H522 lung
OVCAR-8 ovarian = system: OVCAR-8 ovarian
SK-MEL-2 melanoma = system: SK-MEL-2 melanoma
SF-539 CNS = system: SF-539 CNS
PC-3 prostate = system: PC-3 prostate
SN12C renal = system: SN12C renal
HOP-92 NSCLC = system: HOP-92 NSCLC
CAKI-1 renal = system: CAKI-1 renal
NCI-H460 lung = system: NCI-H460 lung
TK-10 renal = system: TK-10 renal
HCT-15 colon = system: HCT-15 colon
UACC-62 melanoma = system: UACC-62 melanoma
HOP-62 NSCLC = system: HOP-62 NSCLC
KM12 colon = system: KM12 colon
EKVX NSCLC = system: EKVX NSCLC
SNB-75 CNS = system: SNB-75 CNS
NCI-H23 lung = system: NCI-H23 lung
CCRF-CEM leukemia = system: CCRF-CEM leukemia
HCC-2998 colon = system: HCC-2998 colon
SF-268 CNS = system: SF-268 CNS
UO-31 renal = system: UO-31 renal
A498 renal = system: A498 renal
A549 NSCLC = system: A549 NSCLC
HT29 colon = system: HT29 colon
MDA-MB-231 breast = system: MDA-MB-231 breast
MDA-MB-435 = system: MDA-MB-435
RXF 393 renal = system: RXF 393 renal
SK-OV-3 ovarian = system: SK-OV-3 ovarian
COLO 205 colon = system: COLO 205 colon
NCI-H226 lung = system: NCI-H226 lung
ACHN renal = system: ACHN renal
SF-295 CNS = system: SF-295 CNS
MCF7 breast = system: MCF7 breast
SK-MEL-28 melanoma = system: SK-MEL-28 melanoma
U251 CNS = system: U251 CNS

## C#Cc1nc(/C=C/C(=O)NO)cs1
RPMI-8226 leukemia
  GI50: 2.03 µM
  TGI: 7.65 µM
IGROV1 ovarian
  GI50: 0.501 µM
  TGI: 1.92 µM
HS 578T breast
  GI50: 2.04 µM
  TGI: 7.62 µM
SW-620 colon
  GI50: 2.07 µM
  TGI: 5.08 µM
DU-145 prostate
  GI50: 2.01 µM
  TGI: 6.16 µM
786-0 renal
  GI50: 0.211 µM
  TGI: 0.427 µM
SNB-19 CNS
  GI50: 6.8 µM
  TGI: 24.3 µM
HL-60(TB) leukemia
  GI50: 1.66 µM
  TGI: 4.09 µM
OVCAR-4 ovarian
  GI50: 1.91 µM
  TGI: 4.28 µM
NCI/ADR-RES ovarian
  GI50: 1.15 µM
  TGI: 34.1 µM
HCT-116 colon
  GI50: 1.56 µM
  TGI: 3.58 µM
M14 melanoma
  GI50: 3.15 µM
  TGI: 15 µM
SK-MEL-5 melanoma
  GI50: 3.6 µM
  TGI: 14 µM
T-47D breast
  GI50: 2.17 µM
  TGI: 7.44 µM
LOX IMVI melanoma
  GI50: 0.171 µM
  TGI: 0.326 µM
UACC-257 melanoma
  GI50: 1.55 µM
  TGI: 11 µM
BT-549 breast
  GI50: 2.63 µM
  TGI: 6.74 µM
K-562 leukemia
  GI50: 3.01 µM
  TGI: 12.8 µM
OVCAR-5 ovarian
  GI50: 2.34 µM
  TGI: 6.11 µM
MALME-3M melanoma
  GI50: 1.29 µM
  TGI: 2.85 µM
NCI-H522 lung
  GI50: 0.211 µM
  TGI: 0.44 µM
OVCAR-8 ovarian
  GI50: 2.24 µM
  TGI: 11.5 µM
SK-MEL-2 melanoma
  GI50: 4.58 µM
  TGI: 17.6 µM
SF-539 CNS
  GI50: 1.62 µM
  TGI: 3.12 µM
PC-3 prostate
  GI50: 4.52 µM
  TGI: 23.7 µM
SN12C renal
  GI50: 5.89 µM
  TGI: 85 µM
HOP-92 NSCLC
  GI50: 1.43 µM
  TGI: 3 µM
CAKI-1 renal
  GI50: 1.72 µM
  TGI: 3.24 µM
NCI-H460 lung
  GI50: 3.15 µM
  TGI: 19.4 µM
TK-10 renal
  GI50: 2.15 µM
  TGI: 8.1 µM
HCT-15 colon
  GI50: 2.98 µM
  TGI: 14.9 µM
UACC-62 melanoma
  GI50: 2.14 µM
  TGI: 8.56 µM
HOP-62 NSCLC
  GI50: 2.76 µM
  TGI: 15 µM
KM12 colon
  GI50: 3.51 µM
  TGI: 14.5 µM
EKVX NSCLC
  GI50: 2.25 µM
  TGI: 5.07 µM
SNB-75 CNS
  GI50: 1.11 µM
  TGI: 2.56 µM
NCI-H23 lung
  GI50: 1.3 µM
  TGI: 2.71 µM
CCRF-CEM leukemia
  GI50: 0.414 µM
  TGI: 1.95 µM
HCC-2998 colon
  GI50: 12.7 µM
  TGI: 26.1 µM
SF-268 CNS
  GI50: 2.24 µM
  TGI: 5.08 µM
UO-31 renal
  GI50: 0.182 µM
  TGI: 0.341 µM
A498 renal
  GI50: 1.8 µM
  TGI: 3.66 µM
A549 NSCLC
  GI50: 3.89 µM
  TGI: 22.5 µM
HT29 colon
  GI50: 2.34 µM
  TGI: 5.7 µM
MDA-MB-231 breast
  GI50: 2.88 µM
  TGI: 7.82 µM
MDA-MB-435
  GI50: 3.7 µM
  TGI: 15.9 µM
RXF 393 renal
  GI50: 1.25 µM
  TGI: 2.91 µM
SK-OV-3 ovarian
  GI50: 3.32 µM
  TGI: 13.4 µM
COLO 205 colon
  GI50: 4.17 µM
  TGI: 14.9 µM
NCI-H226 lung
  GI50: 10.4 µM
  TGI: 36.6 µM
ACHN renal
  GI50: 2.51 µM
  TGI: 7.1 µM
SF-295 CNS
  GI50: 1.91 µM
  TGI: 3.56 µM
MCF7 breast
  GI50: 3.27 µM
  TGI: 19.6 µM
SK-MEL-28 melanoma
  GI50: 4.02 µM
  TGI: 33.7 µM
U251 CNS
  GI50: 2.44 µM
  TGI: 6.84 µM
